Data published in ChEMBL document CHEMBL1221246, “Structure-activity studies on acetylcholinesterase inhibition in the lycorine series of Amaryllidaceae alkaloids” (Bioorg Med Chem Lett, 2010).

Molecular target: T1, Acetylcholinesterase (Homo sapiens, UniProt P22303)
Assay: Inhibition of AChE by Ellman's assay; call rule not given here

T1 sequence (P22303 whole entry): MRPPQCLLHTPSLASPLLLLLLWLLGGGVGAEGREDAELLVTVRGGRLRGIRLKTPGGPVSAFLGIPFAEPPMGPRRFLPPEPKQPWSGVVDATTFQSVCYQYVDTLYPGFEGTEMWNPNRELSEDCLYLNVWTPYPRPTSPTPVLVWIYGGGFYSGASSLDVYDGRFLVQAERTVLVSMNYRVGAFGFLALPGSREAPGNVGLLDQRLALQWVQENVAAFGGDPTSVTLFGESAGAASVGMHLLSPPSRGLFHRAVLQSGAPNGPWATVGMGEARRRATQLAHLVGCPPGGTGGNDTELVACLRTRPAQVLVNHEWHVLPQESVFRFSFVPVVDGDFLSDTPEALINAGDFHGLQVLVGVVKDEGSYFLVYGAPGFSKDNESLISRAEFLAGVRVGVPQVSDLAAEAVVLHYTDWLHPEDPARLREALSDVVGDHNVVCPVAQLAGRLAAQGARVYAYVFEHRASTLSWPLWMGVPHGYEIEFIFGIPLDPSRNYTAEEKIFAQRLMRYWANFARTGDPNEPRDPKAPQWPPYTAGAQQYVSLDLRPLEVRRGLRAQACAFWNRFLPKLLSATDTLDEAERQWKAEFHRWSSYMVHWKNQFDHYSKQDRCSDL

| Structure (SMILES) | Ki [nM] |
| --- | --- |
| CC(=O)O[C@H]1[C@H]2c3cc4c(cc3CN3CCC(=C[C@@H]1O)[C@H]23)OCO4 | 430 |
| CC(=O)O[C@H]1[C@H]2c3cc4c(cc3CN3CCC(=C[C@@H]1O[Si](C)(C)C(C)(C)C)[C@H]23)OCO4 | 340 |
| O=C(O[C@H]1[C@H]2c3cc4c(cc3CN3CCC(=C[C@@H]1O)[C@H]23)OCO4)c1ccccc1 | 540 |
| CC(C)(C)[Si](C)(C)O[C@H]1C=C2CCN3Cc4cc5c(cc4[C@H]([C@@H]1OC(=O)c1ccccc1)[C@@H]23)OCO5 | 390 |
| CC(C)(C)[Si](C)(C)O[C@H]1C=C2CCN3Cc4cc5c(cc4[C@H]([C@@H]1O)[C@@H]23)OCO5 | 860 |
| CC(=O)O[C@H]1C=C2CCN3Cc4cc5c(cc4[C@H]([C@@H]1OC(=O)c1ccccc1)[C@@H]23)OCO5 | 970 |

Molecular target: T1, Acetylcholinesterase
Assay: Inhibition of AChE at 10 uM by Ellman's assay

| Structure (SMILES) | Ki |
| --- | --- |
| O[C@H]1[C@H]2c3cc4c(cc3CN3CCC(=C[C@@H]1O)[C@H]23)OCO4 [LYCORINE] | Not Active |
| CO[C@H]1C=C2[C@H]3CN(Cc4cc5c(cc43)OCO5)[C@H]2C[C@@H]1O [MONTANINE] | Not Active |
| CO[C@H]1C=C[C@@]23c4cc5c(cc4CN(C[C@@H]2O)[C@H]3C1)OCO5 | Not Active |
| COc1cc2c(cc1OC)[C@H]1[C@H]3C(=CC[C@H]1OC2=O)CCN3C [HOMOLYCORINE] | Not Active |
| CO[C@@H]1C=C[C@@]23c4cc5c(cc4CO[C@]2(O)CN(C)[C@H]3C1)OCO5 [TAZETTINE] | Not Active |
| O[C@H]1C=C[C@@]23CCN(Cc4cc5c(cc42)OCO5)[C@@H]3C1 [CRININE] | Not Active |
| COc1cc2c(cc1O)[C@@H]1[C@H](O)[C@@H](O)C=C3CCN(C2)[C@H]31 [PSEUDOLYCORINE] | Not Active |
| CC(=O)O[C@H]1[C@H]2c3cc4c(cc3CN3CCC(=C[C@@H]1OC(C)=O)[C@H]23)OCO4 | Not Active |
